# Oligonucleotides are written 5' to 3', each unit as a sugar letter and its base; * is a phosphorothioate linkage, no mark a phosphodiester; rarer units and linkages stand in square brackets, end groups in braces. Plain capitals give the bases only. Non-standard residues stand in square brackets, D forms with d. {GalNAc-NHC6} = GalNAc ligand attached through an NHC6 linker; Trp(6-F) = N[C@@H](Cc1c[nH]c2cc(F)ccc12)C(=O)O; Dht = not defined here; m = 2'-O-methyl; f = 2'-fluoro
# What was measured:
# complement activation = conditions: relative to compstatin amidated at the C-terminus; based on published data; cited from earlier work
# C3 mRNA [1] = assay: Liver biopsy C3 mRNA (quantitative PCR) in non-human primates after single SC dose; type: in vivo, cynomolgus monkeys; conditions: for reduction of liver C3 mRNA vs vehicle control: by day 15
# Procedure: (§1) Naive male cynomolgus monkeys (n=3 in each group) were subcutaneously (SC) administered a single dose of either 3 mg/kg, 10 mg/kg, or 30 mg/kg siRNA 58, or vehicle (phosphate buffered saline) on day 1.
# Liver needle biopsies were performed on days 15, 46 and 79. The level of C3 mRNA in the samples was measured using a quantitative PCR assay. C3 mRNA level was normalized to the level of ActB mRNA in these experiments.
# C3 protein [2] = assay: Serum C3 protein (ELISA) in non-human primates after single SC dose; type: in vivo, cynomolgus monkeys; conditions: for reduction of serum C3 protein vs baseline: by day 29
# Procedure: as §1
# (§2) Serum samples were scheduled to be collected on days −5, −1, 3, 8, 15, 22, 29, 40, 57, 67, 82, 97, 112, 127, 142, 157, 172 and 184 (where negative values correspond to days before injection with siRNA 58 or vehicle). The level of C3 protein in serum was measured using an ELISA assay. Additionally, serum samples were also analyzed for alternative complement pathway activity (AH50). Values at day −1 value were used as the baseline.
# [3] = test system: alternative complement pathway; assay: Serum alternative complement pathway activity (AH50) in non-human primates; type: in vivo, cynomolgus monkeys
# Procedure: as §1, §2
# alternative pathway = assay: Serum alternative pathway complement activation (AP Wieslab assay, C5b-9) in rats; type: in vivo, Sprague-Dawley rats
# Procedure: (§3) Dosing: Animals from groups 1-3 and 8 were dosed with a single subcutaneous injection of PBS vehicle or 3, 10 or 30 mg/kg siRNA 59, formulated at a concentration of 0.6, 2 and 6 mg/ml in PBS, respectively, in a dosing volume of 5 ml. Animals from groups 4-7 were dosed with 3× daily subcutaneous injection of […] siRNA 59, formulated at a concentration of 0.2, 0.6 and 2 mg/ml in PBS, respectively, in a dosing volume of 5 ml.
# (§4) Sampling: For PD analyses, plasma and serum samples were collected at baseline and days 3, 8, 15, 22 and 29 post-dose. Plasma samples were collected at 15 minutes and 1, 4, 8, 24, 48 and 72 hours post-dose. Liver samples were collected at necropsy on days 3 and 30 post-dose.
# Serum PD samples were analyzed for alternative pathway (AP) complement activation at Confluence Discovery Technologies (MO, USA) using the AP Wieslab assay (Eagle Biosciences, Cat #COMPL AP330).
# Alternative pathway complement activity: Sera from each animal treated with single dose siRNA 59 and vehicle, as well as the multi-dose siRNA (−) control-treated animals, were used in the AP Wieslab assay, an ELISA-based assay that measures formation of C5b-9 following alternative pathway activation, to assess complement activation (FIG. 8). […] Data represents mean±SEM (n=3). Serum AP complement activity was highly variable across the control groups.
# C3 mRNA [4] = assay: Liver C3 mRNA (RT-qPCR) in rats; type: in vivo, Sprague-Dawley rats; conditions: for mean C3 expression in liver, % of gene expression in the vehicle treated arm: 30 mg/kg
# Procedure: as §3, §4
# PD tissue samples were analyzed for C3 mRNA levels using a semi-validated RT-qPCR method at EpigenDx (MA, USA).
# C3 protein [5] = assay: Plasma C3 protein (ELISA) in rats after SC administration; type: in vivo, Sprague-Dawley rats
# Procedure: as §3, §4
# Bioanalytical Methods: Plasma PD samples were analyzed for concentrations of C3 protein at Confluence Discovery Technologies (MO, USA) using a double antibody sandwich ELISA kit according to the manufacturer's instructions (Eagle Biosciences; plasma dilution of 1:10,000).
# [6] = Tolerability observations in rats; type: in vivo, Sprague-Dawley rats
# Procedure: as §3
# [7] = single SC dose 3, 10 or 30 mg/kg
# [8] = SC 3, 10, 30 mg/kg, single or 3x daily
substance,measurement,setting,value
Ac-ICV(Dht)QDWGAHRCT-COOH (Ac-ICV[Dht]QDWGAHRCT-OH; not fully specified (bridges); printed as Ac-ICV(Dht)QDWGAHRCT-COOH; cysteine pairing not given here; reading uncertain) [Ac-V4Dht/H9A-OH],Activity over compstatin,complement activation,5× more
Ac-ICVVQDWGHHRCT-CONH2 [Ac-compstatin],Activity over compstatin,complement activation,3× more
Ac-ICVWQDWGAHRCT-CONH2 (Ac-ICVWQDWGAHRCT-NH2; not fully specified (bridges); printed as Ac-ICVWQDWGAHRCT-CONH2; cysteine pairing not given here) [AC-V4W/H9A],Activity over compstatin,complement activation,45× more
Ac-ICVWQDWGAHRCdT-COOH [AC-V4W/H9A/T13dT-OH],Activity over compstatin,complement activation,55× more
Ac-ICVYQDWGAHRCT-CONH2 [AC-V4Y/H9A],Activity over compstatin,complement activation,14× more
H-GICV(6fW)QD(6fW)GAHRCTN-COOH (H-GICV[Trp(6-F)]QD[Trp(6-F)]GAHRCTN-OH; not fully specified (bridges); cysteine pairing not given here) [+GA/4(6fW)/W7(6fW)H9A+N-OH],Activity over compstatin,complement activation,126× more
siRNA 58: siRNA 53 further modified; sense SEQ ID NO: 325 / antisense SEQ ID NO: 275; GalNAc conjugated via NHC6 linker at 5′ end of sense strand (sense {GalNAc-NHC6}-mC*mC*fAmAmCmUfAfCfAmUmGfAmAmCmCmUfA*mC*mA; antisense mU*fG*mUmAmGmGmUmUmCmAmUmGmUfAmGmUmUmGmG*mC*mU) [siRNA 53 further modified; GalNAc conjugated via NHC6 linker at 5′ end of sense strand],reduction of liver C3 mRNA vs vehicle control,C3 mRNA [1]; single SC dose 3 mg/kg,89%
same,reduction of liver C3 mRNA vs vehicle control,C3 mRNA [1]; single SC dose 10 mg/kg,97%
same,reduction of liver C3 mRNA vs vehicle control,C3 mRNA [1]; single SC dose 30 mg/kg,99%
same,duration of liver C3 mRNA reduction,C3 mRNA [1]; [7],sustained at day 46
same,reduction of serum C3 protein vs baseline,C3 protein [2]; single SC dose 3 mg/kg,77%
same,reduction of serum C3 protein vs baseline,C3 protein [2]; single SC dose 10 mg/kg,85%
same,reduction of serum C3 protein vs baseline,C3 protein [2]; single SC dose 30 mg/kg,90%
same,duration of serum C3 protein reduction,C3 protein [2]; [7],sustained out to day 67
same,reduction of alternative complement pathway activity (AH50) vs baseline,"[3]; single SC dose 3 mg/kg, by day 29",65%
same,reduction of alternative complement pathway activity (AH50) vs baseline,"[3]; single SC dose 3 mg/kg, day 67",68%
same,reduction of alternative complement pathway activity (AH50) vs baseline,"[3]; single SC dose 10 mg/kg, by day 29",82%
same,reduction of alternative complement pathway activity (AH50) vs baseline,"[3]; single SC dose 10 mg/kg, day 67",91%
same,reduction of alternative complement pathway activity (AH50) vs baseline,"[3]; single SC dose 30 mg/kg, by day 29",92%
same,reduction of alternative complement pathway activity (AH50) vs baseline,"[3]; single SC dose 30 mg/kg, day 67",98%
siRNA 59: siRNA 33 further modified; sense SEQ ID NO: 326 / antisense SEQ ID NO: 260; GalNAc conjugated via NHC6 linker at 5′ end of sense strand (sense {GalNAc-NHC6}-mU*mC*fCmAmAmGfCfCfUmUmGfGmCmUmCmAfA*mU*mA; antisense mU*fA*mUmUmGmAmGmCmCmAmAmGmGfCmUmUmGmGmA*mA*mC) [siRNA 33 further modified; GalNAc conjugated via NHC6 linker at 5′ end of sense strand],change in AP Wieslab activity,alternative pathway; dose groups other than high-dose (3 and 10 mg/kg),No change
same,mean reduction in alternative pathway activity,"alternative pathway; high dose group (30 mg/kg single SC), day 8 to day 15 post-dose",approximately 90%
same,"mean C3 expression in liver, % of gene expression in the vehicle treated arm",C3 mRNA [4]; day 3,3%
same,"mean C3 expression in liver, % of gene expression in the vehicle treated arm",C3 mRNA [4]; day 30,25%
same,recovery of liver C3 expression,"C3 mRNA [4]; all treatment animals, study termination at day 30",None of the treatment animals had fully recovered
same,reduction in C3 mRNA in liver across doses,C3 mRNA [4]; both terminal timepoints (day 3 and day 30),dose-dependent manner
same,level of liver C3 mRNA vs vehicle control,"C3 mRNA [4]; single dose PK animal groups, 3 days following treatment",significantly reduced
same,recovery of plasma C3 protein to baseline levels,"C3 protein [5]; 3 mg/kg dose group, day 29",Full recovery
same,reduction in C3 plasma protein concentration,C3 protein [5]; 10 mg/kg dose,~90%
same,"plasma C3 concentration, single dose treatment vs QDx3 equivalent dose groups","C3 protein [5]; 3, 10, 30 mg/kg total dose",comparable
same,recovery of plasma C3 protein to baseline levels,"C3 protein [5]; 10 and 30 mg/kg dose groups, final blood collection on day 29",did not appear to have fully recovered
same,change in plasma C3 concentration across the dose groups,C3 protein [5]; [8],clear dose-dependent response
same,time at which maximal C3 protein reduction in plasma was achieved,C3 protein [5]; all dose groups,≤ 8 study day
same,tolerability of the doses used,[6]; [8],well-tolerated
same,body weight following TA administration,[6]; all treatment groups,no loss in body weight
same,signs of distress or behavioral changes,[6]; all treatment groups,No signs of distress or behavioral changes
